# Key:
# thoracic aortic rings = assay: Thoracic aortic rings assay; conditions: relaxation of male Sprague-Dawley rat aortic rings contracted with 100 ng/mL phenylephrine; read-out: EC50, thoracic aortic ring assay activity
# Method: Thoracic aortic rings were dissected from anesthetized (isoflurane) male Sprague-Dawley rats weighing 275-299 g. Tissues were immediately transferred to ice-cold Krebs-Henseleit solution, which had been aerated with 95% O2 and 5% CO2 for 30 minutes. Following removal of connective tissue, aortic sections were cut into 4 rings (˜2 mm each) and suspended on 2 L-shaped hooks, with one hook fixed at the bottom of the tissue bath (Schuler Organ Bath, Harvard Apparatus) and the other connected to a force transducer (F30 Force Transducer, Harvard Apparatus). Baths contained Krebs Henseleit solution (10 mL) heated to 37° C. and aerated with 95% O2 and 5% CO2. Rings were brought to an initial tension of 0.3-0.5 g and gradually raised to a resting tension of 1.0 g over 60 minutes. Rings were rinsed with Krebs Henseleit solution (heated to 37° C. and aerated with 95% O2 and 5% CO2) at 15 minute intervals until a stable baseline was obtained. Rings were considered to be stable after a resting tension of 1.0 g was maintained (for approximately 10 minutes) without need for adjustment. Rings were then contracted with 100 ng/mL phenylephrine by adding 100 uL of a […] phenylephrine stock solution. Tissues achieving a stable contraction were then treated in a cumulative, dose dependent manner with test compounds prepared in dimethylsulfoxide (DMSO). In some cases, tissues were rinsed three times over a 5 minute period with Krebs-Heinseleit's solution (heated to 37° C. and aerated with 95% O2 and 5% CO2), allowed to stabilize at baseline, and then used for characterization of other test articles or DMSO effects. All data were collected using the HSE-ACAD software provided by Harvard Apparatus. Percent relaxation effects were calculated in Microsoft Excel using the recorded tension value of 100 ng/mL phenylephrine treatment as 0% inhibition and treatment with 100 μM 3-isobutyl-1-methylxanthine as 100% inhibition. EC50 values were calculated from concentration-response curves generated with GraphPad Prism Software.
# [1] = target: T1, soluble guanylate cyclase (sGC) (Homo sapiens, UniProt Q02108+Q02153); assay: sGC-HEK-cGMP assay; format: cell-based; conditions: HEK293 cells, 10 min incubation, intracellular cGMP by LC/MS; for Increase in cGMP Concentration Tested at 10 μM in HEK Assay: test compound 10 μM; for Increase in cGMP Concentration Tested at 30 μM in HEK Assay: test compound 30 μM
# T1 construct: endogenously expressing soluble guanylate cyclase (sGC); endogenous in cells; host or cells: HEK293
# T1 sequence (Q02153 1-619): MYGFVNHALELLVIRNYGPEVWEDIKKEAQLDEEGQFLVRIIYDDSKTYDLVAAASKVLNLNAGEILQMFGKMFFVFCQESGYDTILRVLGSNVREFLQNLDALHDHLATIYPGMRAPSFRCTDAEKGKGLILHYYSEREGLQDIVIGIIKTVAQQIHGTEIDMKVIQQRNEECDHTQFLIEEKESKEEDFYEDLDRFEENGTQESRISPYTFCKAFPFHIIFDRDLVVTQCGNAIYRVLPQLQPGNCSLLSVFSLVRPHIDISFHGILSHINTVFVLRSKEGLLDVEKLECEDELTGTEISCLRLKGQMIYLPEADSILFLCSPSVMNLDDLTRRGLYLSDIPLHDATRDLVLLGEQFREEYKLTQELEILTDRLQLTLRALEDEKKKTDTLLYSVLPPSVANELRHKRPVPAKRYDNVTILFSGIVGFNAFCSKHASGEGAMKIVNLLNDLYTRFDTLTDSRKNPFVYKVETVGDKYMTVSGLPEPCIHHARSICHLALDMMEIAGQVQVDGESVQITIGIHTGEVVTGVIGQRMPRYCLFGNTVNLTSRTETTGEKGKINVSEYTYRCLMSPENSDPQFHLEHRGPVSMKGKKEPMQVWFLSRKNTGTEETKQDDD
# T1 sequence (Q02108 1-690): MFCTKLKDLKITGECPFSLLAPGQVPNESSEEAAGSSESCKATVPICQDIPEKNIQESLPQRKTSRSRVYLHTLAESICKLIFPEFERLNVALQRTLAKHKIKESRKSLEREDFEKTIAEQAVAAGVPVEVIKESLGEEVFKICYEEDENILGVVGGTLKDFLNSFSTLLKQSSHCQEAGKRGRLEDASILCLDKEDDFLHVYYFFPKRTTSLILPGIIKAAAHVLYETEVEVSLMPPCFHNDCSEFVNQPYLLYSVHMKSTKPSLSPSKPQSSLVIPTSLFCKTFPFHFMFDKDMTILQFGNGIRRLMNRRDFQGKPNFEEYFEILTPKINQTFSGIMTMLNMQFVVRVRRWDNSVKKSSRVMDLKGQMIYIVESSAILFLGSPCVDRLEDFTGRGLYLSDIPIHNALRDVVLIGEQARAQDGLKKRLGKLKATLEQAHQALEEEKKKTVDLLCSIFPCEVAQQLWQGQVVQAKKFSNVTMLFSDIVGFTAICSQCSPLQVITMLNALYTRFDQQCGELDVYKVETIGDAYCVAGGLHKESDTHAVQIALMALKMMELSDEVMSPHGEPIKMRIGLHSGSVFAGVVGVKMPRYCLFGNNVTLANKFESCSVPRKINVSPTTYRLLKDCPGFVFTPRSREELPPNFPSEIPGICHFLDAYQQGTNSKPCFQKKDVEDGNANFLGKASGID
# Method: Human embryonic kidney cells (HEK293), endogenously expressing soluble guanylate cyclase (sGC), were used to evaluate the activity of test compounds. Compounds stimulating the sGC receptor should cause an increase in the intracellular concentration of cGMP. […] Cells were then incubated for 15 minutes at 37° C. with 0.5 mM 3-isobutyl-1-methylxanthine (2004). Test article was then added to the assay mixture (2 μL) and incubated at 37° C. for 10 minutes. After the 10 minute incubation, the assay mixture was aspirated and 0.1M HCl (2004) was added to the cells. The plate was incubated at 4° C. for 30 minutes in the 0.1M HCl to stop the reaction and lyse the cells. The plates were then centrifuged at 1,200 g for 5 minutes at room temperature. Supernatants were collected and transferred to a new flat bottom 96 well plate for analysis. Vehicle controls were carried out using DMSO (1%). A known sGC stimulator, BAY 41-2272, was used as the positive control.
# Samples were diluted with an equal volume of 1 M Ammonium Acetate (pH 7) to neutralize samples for better chromatography. A 2×cGMP standard curve was prepared in 0.1 M HCl and then diluted with an equal volume of 1 M Ammonium Acetate, with the following final concentrations in nM: 1024, 512, 256, 128, 64, 32, 16, 8, 4, 2, 1.
# cGMP concentrations were determined from each sample using the LC/MS conditions (Table 2 below) and calculated standard curve. EC50 values were calculated from concentration-response curves generated with GraphPad Prism Software.
Compound,EC50 (thoracic aortic rings),Increase in cGMP Concentration Tested at 10 μM in HEK Assay [1],Increase in cGMP Concentration Tested at 30 μM in HEK Assay [1]
COC(=O)N(C)c1c(N)nc(-c2nn(Cc3ccccc3F)c3c2CCC3)nc1N [Compound I-37],1200 nM,C (C represents an increase ranging from 10 fold to less than 20 fold),B (B represents an increase ranging from 5 fold to less than 10 fold)
Nc1ccnc(-c2nn(Cc3ccccc3F)c3c2CCCC3)n1 [Compound I-22],2000 nM,D (D represents an increase ranging from 20 fold to less than 50 fold),E (E represents an increase ranging from 50 fold to less than 100 fold)
"Nc1nc(-c2nn(Cc3ccccc3F)c3ncccc23)ncc1C1CC1 [Reference Cpd., BAY 41-2272, reference compound]",340 to 950 nM,,
Fc1ccccc1Cn1nc(-c2ncccn2)c2c1CCSC2 [Compound I-15],,C (C represents an increase ranging from 10 fold to less than 20 fold),C (C represents an increase ranging from 10 fold to less than 20 fold)
O=C(c1ccncc1)N1CCc2c(c(-c3ncccn3)nn2Cc2ccccc2F)C1 [Compound I-55],,A (A represents no increase or an increase ranging from more than 0 fold to less than 5 fold),A (A represents no increase or an increase ranging from more than 0 fold to less than 5 fold)
COC(=O)N(Cc1ccccc1F)c1c(N)nc(-c2nn(Cc3ccccc3F)c3c2CCCC3)nc1NCc1ccccc1F [Compound I-24],,A (A represents no increase or an increase ranging from more than 0 fold to less than 5 fold),A (A represents no increase or an increase ranging from more than 0 fold to less than 5 fold)
Fc1cccc(Cn2nc(-c3ncccn3)c3c2CCCC3)c1 [Compound I-7],,C (C represents an increase ranging from 10 fold to less than 20 fold),D (D represents an increase ranging from 20 fold to less than 50 fold)
Fc1ccccc1Cn1nc(-c2ncccn2)c2c1CCCCC2 [Compound I-18],,B (B represents an increase ranging from 5 fold to less than 10 fold),C (C represents an increase ranging from 10 fold to less than 20 fold)
"Fc1ccccc1Cn1nc(-c2cccnc2)c2c1CCCC2 [Compound I-48, 1-(2-fluorobenzyl)-3-(pyridin-3-yl)-4,5,6,7-tetrahydro-1H-indazole]",,A (A represents no increase or an increase ranging from more than 0 fold to less than 5 fold),A (A represents no increase or an increase ranging from more than 0 fold to less than 5 fold)
Nc1nc(N)nc(-c2nn(Cc3ccccc3F)c3c2CCC3)n1 [Compound I-4],,A (A represents no increase or an increase ranging from more than 0 fold to less than 5 fold),A (A represents no increase or an increase ranging from more than 0 fold to less than 5 fold)
Nc1nc(-c2nn(Cc3ccccc3F)c3c2CCC3)nc(N)c1/N=N/c1ccccc1 [Compound I-34],,A (A represents no increase or an increase ranging from more than 0 fold to less than 5 fold),A (A represents no increase or an increase ranging from more than 0 fold to less than 5 fold)
N#Cc1ccccc1Cn1nc(-c2ncccn2)c2c1CCCC2 [Compound I-8],,C (C represents an increase ranging from 10 fold to less than 20 fold),D (D represents an increase ranging from 20 fold to less than 50 fold)
CC1(C)C=Cc2c1c(-c1nccc(N)n1)nn2Cc1ccccc1F [Compound I-28],,B (B represents an increase ranging from 5 fold to less than 10 fold),C (C represents an increase ranging from 10 fold to less than 20 fold)
CC1(C)CC(=O)c2c(-c3ncccn3)nn(Cc3ccccc3F)c2C1 [Compound I-20],,A (A represents no increase or an increase ranging from more than 0 fold to less than 5 fold),A (A represents no increase or an increase ranging from more than 0 fold to less than 5 fold)
O=C(c1ccccn1)N1CCc2c(c(-c3ncccn3)nn2Cc2ccccc2F)C1 [Compound I-56],,A (A represents no increase or an increase ranging from more than 0 fold to less than 5 fold),A (A represents no increase or an increase ranging from more than 0 fold to less than 5 fold)
N#Cc1cccc(Cn2nc(-c3ncccn3)c3c2CCCC3)c1 [Compound I-9],,A (A represents no increase or an increase ranging from more than 0 fold to less than 5 fold),B (B represents an increase ranging from 5 fold to less than 10 fold)
